The assay concerns HCV replication. Description: HCV replicon assay (luciferase), ET (Huh-lucubineo-ET) cell line. The class given is cell-based. Particulars: Hepatitis C virus; tested at 10 μM; ET (Huh-lucubineo-ET) replicon cells; luciferase activity 48-72 hours; relative to no compound control. The method, then:
A cell line, ET (Huh-lucubineo-ET) was used for screening of compounds of the present invention for inhibiting HCV replication. The ET cell line was stably transfected with RNA transcripts harboring a I389luc-ubi-neo/NS3-3′/ET; replicon with firefly luciferase-ubiquitin-neomycin phosphotransferase fusion protein and EMCV-IRES driven NS3-5B polyprotein containing the cell culture adaptive mutations (E1202G; T1280I; K1846T) (Krieger at al, 2001 and unpublished). The ET cells were grown in DMEM (Dulbeco's Modified Eagle's Medium), supplemented with 10% fetal calf serum, 2 mM Glutamine, Penicillin (100 IU/mL)/Streptomycin (100 μg/mL), 1× nonessential amino acids, and 250 μg/mL G418 (“Geneticin”). They were all available through Life Technologies (Bethesda, Md.). The cells were plated at 0.5-1.0×10^4 cells/well in the 96 well plates and incubated for 24 hrs before adding testing compounds. Then the compounds were added to the cells to achieve a final concentration of 0.1 nM to 50 μM and a final DMSO concentration of 0.5%. Luciferase activity were measured 48-72 hours later by adding a lysis buffer and the substrate (Catalog number Glo-lysis buffer E2661 and Bright-Glo luciferase system E2620 Promega, Madison, Wis.). Cells should not be too confluent during the assay. Percent inhibition of replication was plotted relative to no compound control. Under the same condition, cytotoxicity of the compounds was determined using cell proliferation reagent, WST-1 (Roche, Germany). The compounds showing antiviral activities, but no significant cytotoxicities were chosen to determine EC50 and TC50. For these determinations, a 10 point 2-fold serial dilution for each compound was used, which spans a concentration range of 1000 fold. EC50 and similarly TC50 values were calculated by fitting % inhibition at each concentration to the following equation:
% inhibition=100%/[(IC50/[I])^b+1]
where b is Hill's coefficient.
In some preferred embodiments compounds of Formula I will have a % inhibition of at least 20% when tested at 10 μM. In other embodiments the compounds of Formula I will have a % inhibition of at least 50% when tested at 10 μM.
(In general: Replicon systems follow genome replication, usually without infectious particles.)
As for `N#Cc1ccc(-c2ccc3nc([C@@H]4CCCN4C(=O)OCc4ccccc4)[nH]c3c2)cc1` [Compound 4049, (S)-2-[6-(4-Cyano-phenyl)-1H-benzoimidazol-2-yl]-pyrrolidine-1-carboxylic acid benzyl ester], testing at 10 µM gave an inhibition of 20%.

On to `Cc1nc2cc(-c3ccc4nc([C@@H]5CCCN5C(=O)OCc5ccccc5)[nH]c4c3)ccc2s1` [Compound 4051, (S)-2-[6-(2-Methyl-benzothiazol-5-yl)-1H-benzoimidazol-2-yl]-pyrrolidine-1-carboxylic acid benzyl ester], for which 10 µM produced 32.8% inhibition.

With `O=C(OCc1ccccc1)N1CCC[C@H]1c1nc2ccc(-c3cccc(O)c3)cc2[nH]1` [Compound 4054, (S)-2-[6-(3-Hydroxy-phenyl)-1H-benzoimidazol-2-yl]-pyrrolidine-1-carboxylic acid benzyl ester], the inhibition – broadly, the drop in the measured response relative to a control, in per cent – at 10 µM is 99.3%.

`O=C(NC1CC1)c1ccc(-c2csc(NC[C@@H]3CCCN3C(=O)OCc3ccccc3)n2)cc1` [Compound 4055, (S)-2-{[4-(4-Cyclopropylcarbamoyl-phenyl)-thiazol-2-ylamino]-methyl}-pyrrolidine-1-carboxylic acid benzyl ester] came in with an inhibition at 10 µM of 44%.

Consider `O=C(NCc1cccc(-c2ccc3nc([C@@H]4CCCN4C(=O)OCc4ccccc4)[nH]c3c2)c1)C1CC1` [Compound 4057, (S)-2-(6-{3-[(Cyclopropanecarbonyl-amino)-methyl]-phenyl}-1H-benzoimidazol-2-yl)-pyrrolidine-1-carboxylic acid benzyl ester], for which at 10 µM the inhibition was 99.4%.

In turn, `O=C(NC1CC1)c1ccc(-c2cccc(C#C[C@@H]3CCCN3C(=O)OCc3ccccc3)c2)cc1` [Compound 4060, (S)-2-(4′-Cyclopropylcarbamoyl-biphenyl-3-ylethynyl)-pyrrolidine-1-carboxylic acid benzyl ester] returned an inhibition at 10 µM of 48.4%.

The values are drawn from patent US20080193411A1, “Anti-viral Compounds” (Genelabs Technologies, Inc., priority 2006, published 2008).
